Data taken from ChEMBL document CHEMBL1201862, “PubChem BioAssay data set” (2004).
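Values below derive from 48-hour exposures of cells grown in 96-well plates, with endpoints linearly interpolated between the two concentrations bracketing the appropriate inhibition level. GI50 = concentration required for 50% inhibition of growth.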 Calls of active or inactive are those of the source. No stated cut-off is given here; in the data, active = GI50 up to about 1.1 µM and inactive = higher.

Assays:
Experiment in all cases: NCI-60 cell line screen, 48 h
[1] = system: DLD-1
[2] = system: DMS-114
[3] = system: DMS-273
[4] = system: LXFL 529
[5] = system: SNB-78
[6] = system: M19-MEL
[7] = system: XF498
[8] = system: RXF 631
[9] = system: HOP-18

Row | Compound | GI50 [1] | GI50 [2] | GI50 [3] | GI50 [4] | GI50 [5] | GI50 [6] | GI50 [7] | GI50 [8] | GI50 [9]
1 | COc1cc2cc3c4c(cc(OC)c(OC)c4c2cc1OC)CCN3C(=O)CCC(=O)O | > 100 µM (inactive) | > 100 µM (inactive) | > 100 µM (inactive) | > 100 µM (inactive) | > 100 µM (inactive) | – | – | – | –
2 | CC(=O)O[C@H]1CC[C@@]2(C)C(=CC[C@@H]3C2CC[C@]2(C)Nc4c(cnn4-c4ccccc4)CC32)C1 (stereo not given in full) | 21.4 µM (inactive) | 37.1 µM (inactive) | 4.24 µM (inactive) | 17.9 µM (inactive) | 14.4 µM (inactive) | 34.2 µM (inactive) | 25.7 µM (inactive) | – | –
3 | C=CCOC1CC(n2cnc3c(N)ncnc32)OC1CO (stereo not given) | > 100 µM (inactive) | > 100 µM (inactive) | > 100 µM (inactive) | > 100 µM (inactive) | – | > 100 µM (inactive) | > 100 µM (inactive) | – | –
4 | COC(=O)CC(C(C(=O)OCc1ccccc1)C(C)O)N1C(=O)OC(c2ccccc2)C1c1ccccc1 (stereo not given) | > 100 µM (inactive) | 81.5 µM (inactive) | > 100 µM (inactive) | > 100 µM (inactive) | – | > 100 µM (inactive) | 24.9 µM (inactive) | > 100 µM (inactive) | –
5 | Cc1cc(Cl)ccc1NC(=O)C1C(=O)C(=O)N(c2ccc(Cl)cc2C)C1=O (stereo not given) | > 100 µM (inactive) | 25.1 µM (inactive) | > 100 µM (inactive) | 48.3 µM (inactive) | 76 µM (inactive) | > 100 µM (inactive) | – | 68.2 µM (inactive) | –
6 | O=C1NC2C=CN(Cc3ccccc3)C=C2C(=O)N2CCCC12 (stereo not given) | > 100 µM (inactive) | > 100 µM (inactive) | > 100 µM (inactive) | > 100 µM (inactive) | > 100 µM (inactive) | > 100 µM (inactive) | > 100 µM (inactive) | > 100 µM (inactive) | > 100 µM (inactive)
7 | NC(CO)c1ccc(OCc2ccccc2)cc1 (stereo not given) | > 100 µM (inactive) | > 100 µM (inactive) | > 100 µM (inactive) | > 100 µM (inactive) | > 100 µM (inactive) | > 100 µM (inactive) | 76.9 µM (inactive) | – | > 100 µM (inactive)
8 | O=C(/C=C\c1cccc2ccccc12)c1cccs1 | 3.77 µM (inactive) | 4.3 µM (inactive) | 5.26 µM (inactive) | 10.9 µM (inactive) | 15.1 µM (inactive) | 8.3 µM (inactive) | – | – | 10.2 µM (inactive)
9 | CCCCCCCC(=O)OCC(COC(=O)C(C)(C)C)OC(=O)Cc1ccccc1 (stereo not given) | > 100 µM (inactive) | > 100 µM (inactive) | > 100 µM (inactive) | > 100 µM (inactive) | – | > 100 µM (inactive) | – | – | > 100 µM (inactive)
10 | N#C/C(=N\c1ccccc1N(C(=O)c1ccccc1)C(=O)c1ccccc1)c1ccccc1 | > 42 µM (inactive) | 4.63 µM (inactive) | 3.83 µM (inactive) | 41 µM (inactive) | > 91 µM (inactive) | > 100 µM (inactive) | 7.8 µM (inactive) | – | > 40.4 µM (inactive)
11 | COc1cc2c3c(c1OC)-c1ccccc1C(C(O)c1ccccc1)C3N(C)CC2 (stereo not given) | 26.4 µM (inactive) | 17.6 µM (inactive) | 25.5 µM (inactive) | 29.6 µM (inactive) | 65.9 µM (inactive) | 27.8 µM (inactive) | 19.1 µM (inactive) | 22.2 µM (inactive) | 82.8 µM (inactive)
12 | COc1cc(C2C(C(=O)O)=C(COC(C)=O)Oc3cc4c(cc32)OCO4)cc(OC)c1OC(C)=O (stereo not given) | > 100 µM (inactive) | > 100 µM (inactive) | > 100 µM (inactive) | – | > 100 µM (inactive) | > 100 µM (inactive) | > 100 µM (inactive) | > 100 µM (inactive) | > 100 µM (inactive)
13 | COc1ccc2c(c1)[n+]([O-])c(C(=O)C/C(=N\NC(=O)C[N+](C)(C)C)C(=O)Nc1cc(Cl)ccc1Cl)c(C)[n+]2[O-] | > 100 µM (inactive) | – | > 100 µM (inactive) | > 100 µM (inactive) | > 100 µM (inactive) | > 100 µM (inactive) | – | – | > 100 µM (inactive)
14 | O=C(O)COc1ccc(O)c2c1C(=O)CCCC2=O | > 100 µM (inactive) | > 100 µM (inactive) | > 100 µM (inactive) | > 100 µM (inactive) | > 100 µM (inactive) | > 100 µM (inactive) | > 100 µM (inactive) | > 100 µM (inactive) | –
15 | Cc1ccc(NC(=O)/C(C#N)=C/c2ccccc2)c(C)c1 | > 100 µM (inactive) | > 100 µM (inactive) | > 100 µM (inactive) | > 100 µM (inactive) | > 100 µM (inactive) | > 100 µM (inactive) | > 100 µM (inactive) | – | > 100 µM (inactive)
16 | CC(=O)O/N=C/c1cc2c(cc1Br)OCO2 | > 349 µM (inactive) | > 349 µM (inactive) | > 349 µM (inactive) | > 349 µM (inactive) | – | > 349 µM (inactive) | > 349 µM (inactive) | – | –
17 | O=C(Cc1ccc([N+](=O)[O-])c([N+](=O)[O-])c1CC(=O)C(=O)Nc1cc(Cl)ccc1Cl)C(=O)Nc1cc(Cl)ccc1Cl | > 100 µM (inactive) | 45.5 µM (inactive) | 30.3 µM (inactive) | > 100 µM (inactive) | 80 µM (inactive) | > 100 µM (inactive) | – | – | > 100 µM (inactive)
18 | COc1ccc(-c2cc(C(=O)Nc3cccc(C(F)(F)F)c3)nc(S)n2)cc1 | > 100 µM (inactive) | > 100 µM (inactive) | > 100 µM (inactive) | > 100 µM (inactive) | > 100 µM (inactive) | > 100 µM (inactive) | > 100 µM (inactive) | – | > 100 µM (inactive)
19 | COc1ccc(C(=O)C(c2ccc(OC)cc2)C2C(=O)Oc3ccccc32)cc1 (stereo not given) | > 10 µM (inactive) | > 10 µM (inactive) | > 10 µM (inactive) | > 10 µM (inactive) | 67.9 µM (inactive) | > 10 µM (inactive) | > 10 µM (inactive) | > 10 µM (inactive) | 59.4 µM (inactive)
20 | COc1c2c(c3c(c1C1OC(C)[C@@H](C)O1)CC(C)(C)O3)C(=O)c1ccccc1C2=O (stereo not given in full) | 36.1 µM (inactive) | 37.4 µM (inactive) | 24.2 µM (inactive) | 23.1 µM (inactive) | > 100 µM (inactive) | 36.7 µM (inactive) | 41 µM (inactive) | 9.91 µM (inactive) | –
21 | CCOc1ccc2c(c1)[n+]([O-])c(-c1ccccc1Cl)c(N)[n+]2[O-] | > 100 µM (inactive) | > 100 µM (inactive) | > 100 µM (inactive) | > 100 µM (inactive) | > 100 µM (inactive) | > 100 µM (inactive) | > 100 µM (inactive) | > 100 µM (inactive) | > 100 µM (inactive)
22 | O=C(O)CCSCCCN1C(=O)c2ccccc2C1=O | – | > 100 µM (inactive) | – | > 100 µM (inactive) | > 100 µM (inactive) | > 100 µM (inactive) | – | – | –
23 | COc1cc(C)c(C(=O)/C=C/c2cc(OC)c(O)c(OC)c2)cc1O | 15.3 µM (inactive) | 20.5 µM (inactive) | 15.5 µM (inactive) | 20.4 µM (inactive) | 45.5 µM (inactive) | 19.3 µM (inactive) | 15.7 µM (inactive) | 20.8 µM (inactive) | –
24 | COc1ccccc1NC(=O)c1nc2ccc([N+](=O)[O-])cc2nc1C | > 100 µM (inactive) | > 100 µM (inactive) | > 100 µM (inactive) | > 100 µM (inactive) | – | > 100 µM (inactive) | 21 µM (inactive) | – | 0.238 µM (active)
